Test results reported in patent publication US5391571A, “Cholesterol ester hydrolase inhibitors” (priority 1993, dated 1995).

What was measured:
cholesterol absorption = test: in vivo cholesterol absorption study, serum radioactivity after oral [4-^14C] cholesterol; conditions: Rattus norvegicus, 6 h, normal rats, serum radioactivity at six hours; for ED50: read-out: ED50 (effective dose inhibiting fifty percent of the cholesterol absorption of the control animals)
Procedure: The in vivo cholesterol absorption studies were conducted in normal rats by oral administration of the compound being tested in propylene glycol and olive oil followed by oral administration of [4-^14 C] cholesterol in propylene glycol and olive oil, otherwise following the procedure of Cayen et al., J. Lipid Res. 20 162 (1979). The serum radioactivity was measured at six hours after dosing. The results of this study are reported in the following Table, where available, as percent decrease compared to control and in terms of the effective dose (ED50) inhibiting fifty-percent of the absorption of the control animals.

[1] = biological target: T1, cholesterol esterase (EC 3.1.1.13) (Bos taurus, UniProt P30122); test: in vitro inhibition of cholesteryl ester formation by cholesterol esterase; assay type: biochemical, bovine; conditions: 37° C., cholesterol and oleic acid, cholesterol esterase from bovine pancreas; read-out: IC50 (concentration that inhibits one-half of the ester formation)
T1 construct: purchased Sigma Chemical Company, St. Louis, Mo., USA C-1892; host or cells: bovine pancreas
T1 sequence (P30122 19-597): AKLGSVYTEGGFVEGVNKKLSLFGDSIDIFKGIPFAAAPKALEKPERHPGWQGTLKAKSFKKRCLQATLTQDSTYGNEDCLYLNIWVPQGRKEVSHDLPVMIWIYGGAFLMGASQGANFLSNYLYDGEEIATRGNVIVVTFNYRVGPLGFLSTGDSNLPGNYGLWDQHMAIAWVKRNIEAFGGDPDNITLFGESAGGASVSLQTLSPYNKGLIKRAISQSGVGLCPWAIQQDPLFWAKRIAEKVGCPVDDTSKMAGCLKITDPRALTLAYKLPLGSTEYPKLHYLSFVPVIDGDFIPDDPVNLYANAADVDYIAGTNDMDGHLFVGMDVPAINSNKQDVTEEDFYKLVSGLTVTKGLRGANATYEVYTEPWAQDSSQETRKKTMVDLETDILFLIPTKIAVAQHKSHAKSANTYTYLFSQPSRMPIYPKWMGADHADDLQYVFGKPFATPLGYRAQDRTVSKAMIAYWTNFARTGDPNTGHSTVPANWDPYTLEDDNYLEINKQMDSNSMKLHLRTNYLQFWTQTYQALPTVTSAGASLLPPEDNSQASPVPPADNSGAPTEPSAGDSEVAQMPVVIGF
Procedure: The ability of the compounds of this invention to inhibit the formation of cholesteryl esters and thereby interfere with and prevent assimilation of cholesterol into the lymphatic system and ultimately the blood stream was established by incubating the compounds at 37° C. with a mixture of cholesterol and oleic acid in the presence of buffered cholesterol esterase [(EC 3.1.1.13) Sigma Chemical Company, St. Louis, Mo., USA, No. C-1892, from bovine pancreas] and measuring the amount of ester formed, according to the procedure of Field, J. of Lipid Research, 25 389 (1984).

[2] = vs control, read-out: Decrease in [^14C] Cholesterol Absorption

Structure (SMILES)	inhibition in vivo at 50 mg/kg (cholesterol absorption; [2]) [%]	IC50 [1] [µM]	inhibition in vivo at 65 mg/kg (cholesterol absorption; [2]) [%]	inhibition in vivo at 100 mg/kg (cholesterol absorption; [2]) [%]	ED50 (cholesterol absorption) [mg/kg]	inhibition in vivo at 20 mg/kg (cholesterol absorption; 20 mg/kg, vs control, read-out: Decrease in [^14C] Cholesterol Absorption) [%]
CC1CCCCN1C(=O)Oc1ccc(Oc2ccccc2)cc1 (stereo not shown) [Example 63, 2-Methyl-1-piperidinecarboxylic acid 4-phenoxyphenyl ester]	68	> 100	–	–	–	–
Cc1ccc(Oc2ccc(OC(=O)N3CCC(C)CC3)cc2)cc1 [Example 23, 4-Methyl-1-piperidinecarboxylic acid 4-(4-methylphenoxy)phenyl ester]	–	0.27	43	–	–	–
CCCCCCCC/C=C\CCCCCCCCNC(=O)Oc1ccc(Oc2ccccc2)cc1 [Example 67, (Z)-9-Octadecenylcarbamic acid 4-phenoxyphenyl ester]	–	626	–	49	–	–
O=C(Oc1ccc(Oc2ccccc2)cc1)N1CCC(CBr)CC1 [Example 57, 4-(Bromomethyl)-1-piperidinecarboxylic acid, 4-phenoxyphenyl ester]	87	0.08	–	–	–	–
CC1CCN(C(=O)Oc2ccc(Oc3ccccc3)cc2C#N)CC1 [Example 54, 4-Methyl-1-piperidinecarboxylic acid 2-cyano-4-phenoxyphenyl ester]	36	0.44	–	–	–	–
CC(=O)OC1CCN(C(=O)Oc2ccc(Oc3ccccc3)cc2)CC1 [Example 48, 4-(Acetyloxy)-1-piperidinecarboxylic acid 4-phenoxyphenyl ester]	41	0.54	–	–	–	–
CC1CCN(C(=O)Oc2ccc(Oc3ccccc3)cc2F)CC1 [Example 41, 4-Methyl-1-piperidinecarboxylic acid 2-fluoro-4-phenoxyphenyl ester]	73	0.03	–	–	–	–
O=C(Oc1ccc(Oc2ccccc2)cc1)N1CCC2(CCCC2)CC1 [Example 52, 8-Azaspiro[4,5]decan-8-carboxylic acid 4-phenoxyphenyl ester]	78	0.75	–	–	–	–
CC1CCN(C(=O)Oc2ccc(Oc3ccc(Cl)cc3)cc2)CC1 [Example 25, 4-Methyl-1-piperidinecarboxylic acid 4-(4-chlorophenoxy)phenyl ester]	–	0.17	61	–	–	–
COc1ccc(Oc2ccc(OC(=O)N3CCC(C)CC3)cc2)cc1 [Example 30, 4-Methyl-1-piperidinecarboxylic acid 4-(4-methoxyphenoxy)phenyl ester]	–	1.2	83	–	–	–
CN1CCN(C(=O)Oc2ccc(Oc3ccccc3)cc2)CC1 [Example 9, 4-Methyl-1-piperazinecarboxylic acid 4-phenoxyphenyl ester]	–	> 100	–	40	–	–
CCCCCCCCCCCCOC(=O)C1CCN(C(=O)Oc2ccc(Oc3ccccc3)cc2)CC1 [Example 53, 1,4-Piperidinedicarboxylic acid 4-dodecyl 1-(4-phenoxyphenyl) diester]	–	> 100	–	44	–	–
O=C(O)C1CCN(C(=O)Oc2ccc(Oc3ccccc3)cc2)CC1 [Example 46, 1.4-Piperidinedicarboxylic acid 1-(1-phenoxyphenyl ester)]	–	44	–	55	–	–
O=C(Oc1ccc(Oc2ccccc2)cc1)N1CCC(O)CC1 [Example 44, 4-Hydroxy1-piperidinecarboxylic acid 4-phenoxyphenyl ester]	49	1.9	–	–	–	–
CCCCCCCCCCCCOC(=O)c1cc(Oc2ccccc2)ccc1OC(=O)N1CCC(C)CC1 [Example 58, 4-Methyl-1-piperidinecarboxylic acid 2-(dodecycloxycarbonyl)-4-phenoxyphenyl ester]	37	0.34	–	–	–	–
CC1CCN(C(=O)Oc2ccc(Oc3ccccc3)cc2C(=O)O)CC1 [Example 55]	16	31.3	–	–	–	–
O=C(Oc1ccc(Oc2ccccc2)cc1)N1CCCCC1 [Example 2, 1-Piperidinecarboxylic acid 4-phenoxyphenyl ester]	–	0.13	–	82	24	–
CC1(C)CCCN(C(=O)Oc2ccc(Oc3ccccc3)cc2)C1 [Example 47, 3,3-Dimethyl-1-piperidinecarboxylic acid 4-phenoxyphenyl ester]	–	1.6	–	–	–	67
CC(C)CCCC(C)NC(=O)Oc1ccc(Oc2ccccc2)cc1 (stereo not shown) [Example 4, (1,5-Dimethylhexyl)carbamic acid 4-phenoxyphenyl ester]	–	5	–	89	13	–
CC[N+](CC)(CC)CC1CCN(C(=O)Oc2ccc(Oc3ccccc3)cc2)CC1 [Example 61, Triethyl 1-[(4-phenoxyphenoxy)carbonyl]-4-piperidinemethanaminium iodide]	33	> 100	–	–	–	–
COC(=O)c1cc(Oc2ccccc2)ccc1OC(=O)N1CCC(C)CC1 [Example 49, 4-Methyl-1-piperidinecarboxylic acid 2-(methoxycarbonyl)-4-phenoxyphenyl ester]	28	0.34	–	–	–	–
CCN(CC)CC1CCN(C(=O)Oc2ccc(Oc3ccccc3)cc2)CC1 [Example 60]	49	> 100	–	–	–	–
CCCCNC(=O)Oc1ccc(Oc2ccccc2)cc1 [Example 1, Butylcarbamic acid 4-phenoxyphenyl ester]	–	2	–	82	24	–
